Values of other authors as cited in patent publication US20170079478A1, “NITROUS OXIDE MIXTURES AND METHODS OF USE” (KORVATA INC., priority 2014, published 2017).
Like-named read-outs stand apart in the source and are kept apart here.

Tests used:
[1] = compared with nitrogen standardized to 1.0

SMILES	RNP (Relative Narcotic Potency) [1]	lipid solubility (0° C. and 15 psi)	lipid solubility (20° C. and 15 psi)
[Xe] [Xe, xenon]	25.6	–	–
[Ne] [Ne, neon]	0.3	–	–
[N-]=[N+]=O [Example N2O, nitrous oxide]	39	–	–
[He] [He, helium]	0.045	–	–
[Kr] [Kr, krypton]	7.1	–	–
[Ar] [Ar, argon]	2.3	300 µg/mL	250 µg/mL
